Laboratory results from US12037333B2, “Pyridopyrazine and pyridotriazine inhibitors of influenza virus replication” (priority 2018, dated 2024).
pEC50: −log10 of the molar value.

Test system: Influenza type B (cell culture adapted strain B/Lee/40, ATCC VR-1535)
Assay: Influenza antiviral assay: inhibition of virus-induced cytopathic effects (CPE) in MDCK cells, XTT dye reduction
Type: cell-based
Conditions: Influenza B virus, MDCK, 96 h, strain B/Lee/40, MDCK cells, CPE inhibition at 4 days

Compound | pEC50
CN1CN(C23c4ccccc4CC2Cc2ccccc23)n2ccc(=O)c(O)c2C1=O (stereo not drawn) [Compound A1, 1-(9a, 10-dihydroindeno[1,2-a]inden-4b(9H)-yl)-5-hydroxy-3-methyl-2,3-dihydro-1H-pyrido[2,1-f][1,2,4]triazine-4,6-dione] | 6.43 to 6.60
O=C1c2c(O)c(=O)ccn2N(C23c4ccccc4CC2Cc2ccccc23)CN1CC1CC1 (stereo not drawn) [Compound A2, 3-Cyclopropylmethyl-1-(9a,10-dihydro-9H-indeno[1,2-a]inden-4b-yl)-5-hydroxy-2,3-dihydro-1H-pyrido[2,1-f][1,2,4]triazine-4,6-dione] | < 6.30
CN1CN(C23c4ccc(F)cc4CC2Cc2cc(F)ccc23)n2ccc(=O)c(O)c2C1=O (stereo not drawn) [Compound A3, 1-(2,7-Difluoro-9a,10-dihydro-9H-indeno[1,2-a]inden-4b-yl)-5-hydroxy-3-methyl-2,3-dihydro-1H-pyrido[2,1-f][1,2,4]triazine-4,6-dione] | < 6.30
O=C1c2c(O)c(=O)ccn2N(C23c4ccccc4CC2Cc2ccccc23)CN1Cc1ccccc1 (stereo not drawn) [Compound A4, 3-Benzyl-1-(9a,10-dihydro-9H-indeno[1,2-a]inden-4b-yl)-5-hydroxy-2,3-dihydro-1H-pyrido[2,1-f][1,2,4]triazine-4,6-dione] | < 6.30
O=C1c2c(O)c(=O)ccn2N(C23c4ccccc4CC2Cc2ccccc23)CN1CCOc1ccccc1 (stereo not drawn) [Compound A7, 1-(9a,10-Dihydro-9H-indeno[1,2-a]inden-4b-yl)-5-hydroxy-3-(2-phenoxy-ethyl)-2,3-dihydro-1H-pyrido[2,1-t][1,2,4]triazine-4,6-dione] | > 6.90
CN1CN(C23c4cc(F)c(F)cc4CC2Cc2cc(F)c(F)cc23)n2ccc(=O)c(O)c2C1=O (stereo not drawn) [Compound A8, 5-Hydroxy-3-methyl-1-(2,3,6,7-tetrafluoro-9a,10-dihydro-9H-indeno[1,2-a]inden-4b-yl)-2,3-dihydro-1H-pyrido[2,1-f][1,2,4]triazine-4,6-dione] | < 6.30
O=C1c2c(O)c(=O)ccn2N(C23c4ccccc4CC2Cc2c3ccc(F)c2F)CN1CC1CC1 (stereo not drawn) [Compound A9, 3-Cyclopropylmethyl-1-(1,2-difluoro-9a,10-dihydro-9H-indeno[1,2-a]inden-4b-yl)-5-hydroxy-2,3-dihydro-1H-pyrido[2,1-f][1,2,4]triazine-4,6-dione] | 6.60 to 6.90
CCN1CN(C23c4ccccc4CC2Cc2cc(F)c(F)cc23)n2ccc(=O)c(O)c2C1=O (stereo not drawn) [Compound A10, 1-(2,3-Difluoro-9a,10-dihydro-9H-indeno[1,2-a]inden-4b-yl)-3-ethyl-5-hydroxy-2,3-dihydro-1H-pyrido[2,1-f][1,2,4]triazine-4,6-dione] | < 6.30
O=C1c2c(O)c(=O)ccn2N(C23c4ccccc4CC2Cc2c3ccc(F)c2F)CN1Cc1ccccc1 (stereo not drawn) [Compound A11, 3-Benzyl-1-(1,2-difluoro-9a,10-dihydro-9H-indeno[1,2-a]inden-4b-yl)-5-hydroxy-2,3-dihydro-1H-pyrido[2,1-t][1,2,4]triazine-4,6-dione] | 6.30 to 6.43
CN1CN(C23c4cccc(F)c4CC2Cc2c(F)cccc23)n2ccc(=O)c(O)c2C1=O (stereo not drawn) [Compound A12, 1-(1,8-Difluoro-9a,10-dihydro-9H-indeno[1,2-a]inden-4b-yl)-5-hydroxy-3-methyl-2,3-dihydro-1H-pyrido[2,1-f][1,2,4]triazine-4,6-dione] | < 6.30
O=C1c2c(O)c(=O)ccn2N(C23c4ccccc4CC2Cc2cc(F)c(F)cc23)CN1CC1CC1 (stereo not drawn) [Compound A13, 3-Cyclopropylmethyl-1-(2,3-difluoro-9a,10-dihydro-9H-indeno[1,2-a]inden-4b-yl)-5-hydroxy-2,3-dihydro-1H-pyrido[2,1-f][1,2,4]triazine-4,6-dione] | > 6.90
CCN1CN(C23c4ccccc4CC2Cc2c3ccc(F)c2F)n2ccc(=O)c(O)c2C1=O (stereo not drawn) [Compound A14, 1-(1,2-Difluoro-9a,10-dihydro-9H-indeno[1,2-a]inden-4b-yl)-3-ethyl-5-hydroxy-2,3-dihydro-1H-pyrido[2,1-f][1,2,4]triazine-4,6-dione] | 6.60 to 6.90
